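Cultured in 96-well plates, cells were exposed to test compound for 48 hours across five concentrations. Abbreviation: GI50, concentration required for 50% inhibition of growth.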 Activity calls are given as the source filed them. Cut-off read from the data, not from the text of the source: active = GI50 up to about 1.1 µM and inactive = higher.
Tests used:
Assay in all cases: NCI tumour cell line growth inhibition, 48 h
[1] = system: SF-295
[2] = system: CAKI-1
[3] = system: OVCAR-8
[4] = system: LOX IMVI
[5] = system: SK-MEL-2
[6] = system: OVCAR-5
[7] = system: UACC-257
[8] = system: SF-539
[9] = system: SK-MEL-28
[10] = system: Hs-578T
[11] = system: SN12C
[12] = system: SK-OV-3
[13] = system: MDA-MB-231
[14] = system: TK-10
[15] = system: SW-620
[16] = system: MDA-N
[17] = system: SNB-19
[18] = system: HOP-62
[19] = system: NCI-H460
[20] = system: BT-549

Measured: GI50

CC1=C(C#N)C(C#N)(C#N)C(NN(C)C)C1 (stereo not given)
inactive: [1] 24.5 µM | [2] 1.71 µM | [3] 26.3 µM | [4] 12.6 µM | [5] 20.2 µM | [6] 23.3 µM | [7] 10.6 µM | [8] 36.1 µM | [9] 23 µM | [10] > 100 µM | [11] 14.1 µM | [12] > 100 µM | [13] 14.2 µM | [14] 17 µM | [15] 17.3 µM | [16] 10.1 µM | [17] > 10 µM | [18] 16.7 µM

Cc1c(C(=O)CC(=O)C(=O)Nc2ccc(Cl)c(Cl)c2)[n+]([O-])c2ccccc2[n+]1[O-]
inactive: [1] 41.7 µM | [2] 51.9 µM | [3] 17.2 µM | [4] 21.1 µM | [5] 26.9 µM | [6] 36.4 µM | [7] 17.5 µM | [8] 26.9 µM | [19] 24.7 µM | [9] 37.9 µM | [11] 23.8 µM | [12] 41.6 µM | [14] 46.5 µM | [15] 25.1 µM | [17] 27 µM | [18] 64.4 µM

N#C/C(=C\c1c(O)cc(O)cc1O)C(N)=O
inactive: [1] > 100 µM | [2] > 100 µM | [3] > 100 µM | [4] > 100 µM | [5] > 100 µM | [6] > 100 µM | [7] > 100 µM | [8] > 100 µM | [19] > 100 µM | [9] > 100 µM | [11] > 100 µM | [12] > 100 µM | [14] > 100 µM | [15] > 100 µM | [17] > 100 µM | [18] > 100 µM

CC12CC3CC/C(=N\O)C(C1)C3(N1CCOCC1)C/C2=N/O (stereo not given)
inactive: [1] > 100 µM | [2] > 100 µM | [3] > 100 µM | [4] > 100 µM | [5] > 100 µM | [6] > 100 µM | [7] > 100 µM | [8] > 100 µM | [19] > 100 µM | [9] > 100 µM | [11] > 100 µM | [12] > 100 µM | [13] > 100 µM | [15] > 100 µM | [16] > 100 µM | [17] > 100 µM | [18] > 100 µM

CCOC(=O)c1c(N)n(-c2ccccc2)c(=O)n(-c2ccccc2)c1=O
inactive: [20] > 100 µM | [1] > 100 µM | [3] > 100 µM | [4] > 100 µM | [5] > 100 µM | [6] > 100 µM | [7] > 100 µM | [19] > 100 µM | [9] > 100 µM | [10] > 100 µM | [11] > 100 µM | [13] > 100 µM | [14] > 100 µM | [15] > 100 µM | [17] > 100 µM

c1ccc(CN2CCC(Nc3ccccc3)(c3nnnn3Cc3ccccc3)CC2)cc1
inactive: [1] 20.5 µM | [3] 32.8 µM | [4] 20.1 µM | [6] 22.5 µM | [7] 14.1 µM | [8] 20.5 µM | [19] 15.7 µM | [9] 17.2 µM | [10] 24.2 µM | [11] 39.7 µM | [12] 70.1 µM | [13] 27.2 µM | [14] 29.2 µM | [15] 22.2 µM | [17] 27.3 µM | [18] 45.7 µM

Oc1ccccc1/C=C/c1csnn1
inactive: [1] > 100 µM | [2] > 100 µM | [3] > 100 µM | [4] > 52.1 µM | [5] > 100 µM | [6] > 100 µM | [7] > 100 µM | [8] > 100 µM | [19] > 69.7 µM | [9] > 100 µM | [11] > 100 µM | [12] > 100 µM | [14] > 100 µM | [15] > 65.9 µM | [17] > 100 µM | [18] > 100 µM

O=NN(CCCl)C(=O)N[C@H]1CC[C@H](CC(=O)O)CC1
inactive: [1] 34.8 µM | [2] > 100 µM | [3] > 100 µM | [4] 22.1 µM | [5] > 100 µM | [6] > 100 µM | [7] > 100 µM | [8] 26.1 µM | [19] 45.2 µM | [9] > 100 µM | [11] 66.8 µM | [12] > 100 µM | [14] > 100 µM | [15] > 69.2 µM | [17] 59.3 µM | [18] > 94.6 µM

CC(=NNC(=S)Nc1ccc(C)cc1)c1cccc(C(C)=NNC(=S)Nc2ccc(C)cc2)n1
inactive: [1] 11 µM | [2] 4.75 µM | [3] 6.44 µM | [4] 9.91 µM | [5] 68.7 µM | [6] 60.5 µM | [7] 13.9 µM | [8] 7.01 µM | [19] 6.47 µM | [9] > 100 µM | [10] 41.1 µM | [11] 21.5 µM | [12] 47.3 µM | [13] 24.2 µM | [14] 60.1 µM | [15] 10.9 µM | [16] 19.9 µM | [17] 36.3 µM | [18] 9.82 µM

CN1c2ccccc2C(=O)NC12CCNCC2
inactive: [1] > 100 µM | [3] > 100 µM | [4] > 100 µM | [6] > 100 µM | [7] > 100 µM | [8] > 100 µM | [19] > 100 µM | [9] > 100 µM | [12] > 100 µM | [14] > 100 µM | [15] > 100 µM | [17] > 100 µM | [18] > 100 µM
active: [10] 0.082 µM

CCOP(=O)(O)C(C)(C)NC
inactive: [1] > 100 µM | [2] > 10 µM | [3] > 100 µM | [4] > 100 µM | [5] > 100 µM | [6] > 100 µM | [7] > 100 µM | [8] > 100 µM | [19] > 100 µM | [9] > 100 µM | [10] > 100 µM | [11] > 100 µM | [12] > 100 µM | [13] > 100 µM | [14] > 100 µM | [15] > 100 µM | [16] > 100 µM | [17] > 100 µM | [18] > 100 µM

COCNC(=NC#N)NCOC
inactive: [1] > 100 µM | [2] > 100 µM | [3] > 100 µM | [4] > 41.7 µM | [5] > 100 µM | [6] > 100 µM | [7] > 100 µM | [8] > 100 µM | [19] > 100 µM | [9] > 100 µM | [11] > 100 µM | [12] > 100 µM | [14] > 100 µM | [15] > 42.9 µM | [17] > 100 µM | [18] > 100 µM

Cc1cc(Cl)cc2c1NC(=O)C2(O)CC(=O)c1ccc(Br)cc1 (stereo not given)
inactive: [1] 46.9 µM | [2] > 100 µM | [3] 38.2 µM | [4] 38.5 µM | [5] > 100 µM | [6] > 100 µM | [7] 32.6 µM | [8] 48.3 µM | [19] 55.7 µM | [9] 35.6 µM | [11] > 77.1 µM | [12] > 100 µM | [14] > 73.8 µM | [15] > 90.6 µM | [17] 71 µM | [18] > 100 µM

O=C1c2ccccc2CC1C1(O)C(=O)Nc2ccccc21 (stereo not given)
inactive: [1] > 100 µM | [2] > 100 µM | [3] > 100 µM | [4] > 100 µM | [5] > 100 µM | [6] > 100 µM | [7] > 100 µM | [8] > 100 µM | [19] > 100 µM | [9] > 100 µM | [11] > 100 µM | [12] > 100 µM | [14] > 100 µM | [15] > 100 µM | [17] > 100 µM | [18] > 100 µM

CC(C(=O)c1ccc(Cl)cc1)C1OC(=O)C(Cl)=C1Cl (stereo not given)
inactive: [1] > 100 µM | [2] > 10 µM | [3] 32.5 µM | [4] 24.3 µM | [5] 23.2 µM | [6] > 100 µM | [7] 35.6 µM | [8] 27.6 µM | [19] > 100 µM | [9] 27.3 µM | [11] 24.6 µM | [12] > 100 µM | [14] 37.2 µM | [15] 34.5 µM | [17] 85.1 µM | [18] > 100 µM

O=C1/C(=C\c2c(-c3ccccc3)[nH]n(-c3ccccc3)c2=O)C(c2ccccc2)=NN1c1ccccc1
inactive: [1] > 100 µM | [2] > 100 µM | [3] > 100 µM | [4] > 100 µM | [5] > 100 µM | [6] > 100 µM | [7] > 100 µM | [8] > 100 µM | [19] > 100 µM | [9] > 100 µM | [10] > 100 µM | [11] > 100 µM | [12] > 100 µM | [13] > 100 µM | [14] > 100 µM | [15] > 100 µM | [16] > 100 µM | [17] > 100 µM | [18] > 100 µM

From ChEMBL document CHEMBL1201862, “PubChem BioAssay data set” (2004)
